Source: patent US4868321A, “Isothiocyanate intermediates” (FMC Corporation, priority 1988, dated 1989)

Experiments:
Assay type in all cases: in vivo
[1] = test system: Velvetleaf; assay: Postemergence Herbicidal Activity, Velvetleaf; conditions: Abutilon theophrasti, post-emergence
Procedure, shortened: (§1)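 Test compounds were applied, usually as solutions in 50/50 acetone/water, to plants postemergence or to soil preemergence. Rates are given in kg/ha, and activity is scored as percent control (% C).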

[2] = test system: Green Foxtail; assay: Postemergence Herbicidal Activity, Green Foxtail; conditions: Setaria viridis, post-emergence
Procedure, shortened: (§2)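 Efficacy is recorded as percent control at each application rate, expressed in kg/ha.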

[3] = test system: Johnsongrass; assay: Postemergence Herbicidal Activity, Johnsongrass; conditions: Sorghum halepense, post-emergence
Procedure, shortened: as §2

[4] = test system: Soybean; assay: Preemergence Herbicidal Activity, Soybean
Procedure, shortened: (§3)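 Percent control of the crop served as the read-out, with dosing stated in kilograms per hectare.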

[5] = test system: Rice; assay: Postemergence Herbicidal Activity, Rice; conditions: Oryza sativa, post-emergence
Procedure, shortened: as §3

[6] = test system: Cotton; assay: Preemergence Herbicidal Activity, Cotton
Procedure, shortened: as §1

[7] = test system: Rice; assay: Preemergence Herbicidal Activity, Rice; conditions: Oryza sativa, pre-emergence
Procedure, shortened: as §3

[8] = test system: Field Bindweed; assay: Preemergence Herbicidal Activity, Field Bindweed; conditions: pre-emergence
Procedure, shortened: as §1

[9] = test system: broadleafed weeds; assay: postemergence control of broadleaf weeds
[10] = test system: corn, wheat and soybeans; assay: postemergence crop selectivity
[11] = test system: Velvetleaf; assay: Preemergence Herbicidal Activity, Velvetleaf; conditions: Abutilon theophrasti, pre-emergence
Procedure, shortened: as §1

[12] = test system: Johnsongrass; assay: Preemergence Herbicidal Activity, Johnsongrass; conditions: Sorghum halepense, pre-emergence
Procedure, shortened: as §2

[13] = test system: Cotton; assay: Postemergence Herbicidal Activity, Cotton; conditions: Gossypium hirsutum, post-emergence
Procedure, shortened: as §1

[14] = test system: Soybean; assay: Postemergence Herbicidal Activity, Soybean; conditions: Glycine max, post-emergence
Procedure, shortened: as §3

[15] = test system: Morningglory; assay: Preemergence Herbicidal Activity, Morningglory; conditions: Ipomoea, pre-emergence
Procedure, shortened: as §1

[16] = test system: Field Corn; assay: Preemergence Herbicidal Activity, Field Corn; conditions: Zea mays, pre-emergence
Procedure, shortened: as §3

[17] = test system: Wheat; assay: Preemergence Herbicidal Activity, Wheat; conditions: Triticum aestivum, pre-emergence
Procedure, shortened: as §3

[18] = test system: Barnyardgrass; assay: Postemergence Herbicidal Activity, Barnyardgrass; conditions: Echinochloa crus-galli, post-emergence
Procedure, shortened: as §2

[19] = test system: Green Foxtail; assay: Preemergence Herbicidal Activity, Green Foxtail; conditions: Setaria viridis, pre-emergence
Procedure, shortened: as §2

[20] = test system: Field Corn; assay: Postemergence Herbicidal Activity, Field Corn; conditions: Zea mays, post-emergence
Procedure, shortened: as §3

[21] = test system: Morningglory; assay: Postemergence Herbicidal Activity, Morningglory; conditions: Ipomoea, post-emergence
Procedure, shortened: as §1

[22] = test system: Barnyardgrass; assay: Preemergence Herbicidal Activity, Barnyardgrass; conditions: Echinochloa crus-galli, pre-emergence
Procedure, shortened: as §2

[23] = test system: Field Bindweed; assay: Postemergence Herbicidal Activity, Field Bindweed; conditions: post-emergence
Procedure, shortened: as §1

[24] = test system: Wheat; assay: Postemergence Herbicidal Activity, Wheat; conditions: Triticum aestivum, post-emergence
Procedure, shortened: as §3

[25] = test system: Rice; assay: weed control of paddy rice in pots, transplanted rice; conditions: rice transplanted at a depth of 2 cm
Description: (§4) In addition, tests of the effectiveness of weed control of paddy rice were done in pots containing clay loam paddy soil under water maintained at a depth of 3 cm. In one test tubers of narrowleaf arrowhead (Sagittaria pymaea) and rhizomes of flatsedge (Cyperus serotinus) were planted in pots at depth of 2 cm and 0.5 cm respectively, rice seedlings of 2.2 leaf state were transplanted in depth of 2 cm and 0 cm and a controlled amount of a 10% wp (wettable powder) formulation of the herbicidal compound in water was dropped into the water over the soil at 1 day and 11 days, respectively, after transplanting. In another test, seeds of various weed species (including barnyardgrass, Echinochoa crus-galli; small flower umbrellaplant, Cyperus difformis; bulrush, Scripus juncoides; Japanese ducksalad, Monochoria vaginalis; annual broadleaf weeds; and narrowleaf waterplantain, Alisma canaliculatium) were sown on the surface of the soil and the same (1 day and 11 day) herbicide applications were made.

[26] = test system: weeds of wide spectrum; assay: weed control of paddy rice in pots, weeds; conditions: 1 day and 11 day treatments, e.g. about 0.06 kg/ha or less
Description: as §4

[27] = test system: soybeans, corn, barley, wheat, rice (e.g. paddy rice), beans, peas, peanuts and potatoes; assay: selective herbicidal use on crops, especially preemergent
[28] = test system: broad leaf weeds; assay: preemergence use against broad leaf weeds; conditions: with crops such as corn, rice, wheat and soybeans
[29] = test system: cotton or soybeans; assay: preemergence crop selectivity; conditions: rates below about 1/4 or 1/10 kg/ha

CCS(=O)(=O)N(c1cc(-n2nnn(CCCF)c2=O)c(F)cc1Cl)S(C)(=O)=O [Compound 11, 1-[4-chloro-2-fluoro-5-[(N--ethylsulfonyl-N--methylsulfonyl)amino]-phenyl]-1,4-dihydro-4-(3-fluoropropyl)-5H--tetrazol-5-one]
pest or weed control at 500 g/ha ([1]; 0.5 kg/ha): 100% | pest or weed control at 500 g/ha ([2]; 0.5 kg/ha): 80% | pest or weed control at 500 g/ha ([3]; 0.5 kg/ha): 50% | plant injury at 500 g/ha ([4]; Glycine max, pre-emergence, 0.5 kg/ha): 30% | plant injury at 500 g/ha ([5]; 0.5 kg/ha): 40% | plant injury at 500 g/ha ([6]; Gossypium hirsutum, pre-emergence, 0.5 kg/ha): 100% | plant injury at 500 g/ha ([7]; 0.5 kg/ha): 80% | pest or weed control at 500 g/ha ([8]; 0.5 kg/ha): 100% | results in postemergence use against broadleafed weeds ([9]; postemergence, corn, wheat and soybeans): particularly good results | selectivity for crops, postemergence [10]: favorable selectivity | pest or weed control at 500 g/ha ([11]; 0.5 kg/ha): 100% | pest or weed control at 500 g/ha ([12]; 0.5 kg/ha): 90% | plant injury at 500 g/ha ([13]; 0.5 kg/ha): 100% | plant injury at 500 g/ha ([14]; 0.5 kg/ha): 60% | pest or weed control at 500 g/ha ([15]; 0.5 kg/ha): 100% | plant injury at 500 g/ha ([16]; 0.5 kg/ha): 95% | plant injury at 500 g/ha ([17]; 0.5 kg/ha): 80% | pest or weed control at 500 g/ha ([18]; 0.5 kg/ha): 80% | pest or weed control at 500 g/ha ([19]; 0.5 kg/ha): 100% | plant injury at 500 g/ha ([20]; 0.5 kg/ha): 80% | pest or weed control at 500 g/ha ([21]; 0.5 kg/ha): 80% | pest or weed control at 500 g/ha ([22]; 0.5 kg/ha): 100% | pest or weed control at 500 g/ha ([23]; 0.5 kg/ha): 100% | plant injury at 500 g/ha ([24]; 0.5 kg/ha): 70%

CCS(=O)(=O)Nc1cc(-n2nnn(CCCF)c2=O)c(F)cc1Cl [Compound 4, 1-[4-chloro-2-fluoro-5-(ethylsulfonylamino)phenyl]-1,4-dihydro-4-(3-fluoropropyl)-5H-tetrazol-5-one]
pest or weed control at 250 g/ha ([1]; 0.25 kg/ha): 100% | selectivity (paddy rice) [25]: selectivity favorable to rice | pest or weed control at 250 g/ha ([2]; 0.25 kg/ha): 80% | pest or weed control at 250 g/ha ([3]; 0.25 kg/ha): 20% | Preemergence Herbicidal Activity ([4]; 0.25 kg/ha): 0 % Control | plant injury at 250 g/ha ([5]; 0.25 kg/ha): 20% | activity against weeds (paddy) [26]: very high activity | Preemergence Herbicidal Activity ([6]; 0.25 kg/ha): 95 % Control | control of broadleafed weeds, postemergent ([9]; plantings of corn, wheat, barley, oats, rice and sorghum, about 30 to 250 g/ha, e.g. 125 g/ha): very good control | pest or weed control at 250 g/ha ([12]; 0.25 kg/ha): 30% | plant injury at 250 g/ha ([13]; 0.25 kg/ha): 100% | plant injury at 250 g/ha ([14]; 0.25 kg/ha): 60% | plant injury at 250 g/ha ([17]; 0.25 kg/ha): 10% | pest or weed control at 250 g/ha ([18]; 0.25 kg/ha): 50% | pest or weed control at 250 g/ha ([19]; 0.25 kg/ha): 20% | plant injury at 250 g/ha ([20]; 0.25 kg/ha): 50% | effective rate ([27]; "effective at low rates, e.g. at about 0.5 kg/ha and below"): ≤ 0.5 kg/ha | selective herbicidal effectiveness ([27]; especially preemergent use on crops): particularly effective | pest or weed control at 250 g/ha ([21]; 0.25 kg/ha): 95% | pest or weed control at 250 g/ha ([22]; 0.25 kg/ha): 80% | pest or weed control at 250 g/ha ([23]; 0.25 kg/ha): 100% | usefulness preemergently against broad leaf weeds [28]: particularly useful | plant injury at 250 g/ha ([24]; 0.25 kg/ha): 20%

CCCN(c1cc(-n2nnn(CCCF)c2=O)c(F)cc1Cl)S(=O)(=O)CC [Compound 14]
pest or weed control at 1000 g/ha ([1]; 1.0 kg/ha): 100% | pest or weed control at 1000 g/ha ([2]; 1.0 kg/ha): 100% | pest or weed control at 1000 g/ha ([3]; 1.0 kg/ha): 100% | plant injury at 1000 g/ha ([4]; Glycine max, pre-emergence, 1.0 kg/ha): 95% | plant injury at 1000 g/ha ([5]; 1.0 kg/ha): 100% | plant injury at 1000 g/ha ([6]; Gossypium hirsutum, pre-emergence, 1.0 kg/ha): 100% | plant injury at 1000 g/ha ([7]; 1.0 kg/ha): 100% | pest or weed control at 1000 g/ha ([8]; 1.0 kg/ha): 100% | pest or weed control at 1000 g/ha ([11]; 1.0 kg/ha): 100% | pest or weed control at 1000 g/ha ([12]; 1.0 kg/ha): 100% | plant injury at 1000 g/ha ([13]; 1.0 kg/ha): 100% | plant injury at 1000 g/ha ([14]; 1.0 kg/ha): 100% | pest or weed control at 1000 g/ha ([15]; 1.0 kg/ha): 100% | plant injury at 1000 g/ha ([16]; 1.0 kg/ha): 100% | plant injury at 1000 g/ha ([17]; 1.0 kg/ha): 100% | pest or weed control at 1000 g/ha ([18]; 1.0 kg/ha): 100% | pest or weed control at 1000 g/ha ([19]; 1.0 kg/ha): 100% | plant injury at 1000 g/ha ([20]; 1.0 kg/ha): 100% | pest or weed control at 1000 g/ha ([21]; 1.0 kg/ha): 100% | pest or weed control at 1000 g/ha ([22]; 1.0 kg/ha): 100% | pest or weed control at 1000 g/ha ([23]; 1.0 kg/ha): 100% | plant injury at 1000 g/ha ([24]; 1.0 kg/ha): 100% | herbicide selectivity [29]: highly selective
